According to patent US9174997B2, “4-(4-cyano-2-thioaryl)dihydropyrimidinones and use thereof” (Bayer Intellectual Property GmbH, priority 2007, dated 2015):

What was measured:
[1] = molecular target: human neutrophil elastase (HNE) (Homo sapiens (Human), UniProt P08246); test: In vitro HNE inhibition assay; assay type: biochemical; settings: HNE concentration of 80 pM; substrate MeOSuc-Ala-Ala-Pro-Val-AMC; 37° C. for 2 hours
Method: B-1. In Vitro HNE Inhibition Assay
The potency of the compounds of the invention is ascertained in an in vitro inhibition assay. The HNE-mediated amidolytic cleavage of a suitable peptide substrate leads in this connection to an increase in the fluorescent light. The signal intensity of the fluorescent light is directly proportional to the enzyme activity.
Enzyme ([…]; from Serva, Heidelberg) and substrate (20 μM MeOSuc-Ala-Ala-Pro-Val-AMC; from Bachem, Weil am Rhein) are incubated in an assay volume of in total 50 μl of assay buffer (0.1 M HEPES pH 7.4, 0.5 M NaCl, 0.1% w/v BSA, 1% v/v DMSO) in a 384-well microtiter plate in the presence and absence of the test substance at 37° C. for 2 hours. […] The IC50 values are determined by plotting the intensity of the fluorescent light against the active substance concentration.

rat hepatocytes = test: Hepatocyte assay to determine the metabolic stability; assay type: in vitro ADME; settings: after incubation with rat hepatocytes
Method: B-6. Hepatocyte Assay to Determine the Metabolic Stability
The metabolic stability of test compounds in the presence of hepatocytes is determined by incubating the compounds with low concentrations (preferably below or around 1 μM) and with low cell counts (preferably 1*10^6 cells/ml) in order to ensure as far as possible linear kinetic conditions in the experiment. Seven samples of the incubation solution are taken in a fixed time pattern for the […] analysis in order to determine the half-life (i.e. the degradation) of the compound in each case. Various clearance parameters (CL) and Fmax values are calculated from this half-life (see below).
The Cl and Fmax values represent a measure of the phase 1 and phase 2 metabolism of the compounds in the hepatocytes. In order to minimize the influence of the organic solvent on the enzymes in the incubation mixtures, this concentration is generally limited to 1% (acetonitrile) or 0.1% (DMSO).
A cell count for hepatocytes in the liver of 1.1*10^8 cells/g of liver is used for calculation for all species and breeds.
The calculated parameters and their meaning are:
Representative values for the compounds according to the invention from this assay after incubation of the compounds with rat hepatocytes are shown in Table B below: […]

Sequence of human neutrophil elastase (HNE) (P08246 30-267): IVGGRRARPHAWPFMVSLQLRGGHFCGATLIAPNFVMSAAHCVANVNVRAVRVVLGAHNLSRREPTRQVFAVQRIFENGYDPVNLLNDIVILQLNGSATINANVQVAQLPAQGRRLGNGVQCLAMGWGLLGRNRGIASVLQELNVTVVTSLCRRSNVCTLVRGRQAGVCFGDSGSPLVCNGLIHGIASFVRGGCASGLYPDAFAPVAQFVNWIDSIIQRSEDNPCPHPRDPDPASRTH

| SMILES | IC50 [1] [nM] | CLblood, calculated blood clearance (well stirred model) (rat hepatocytes) [mL/min/kg] | Fmax, maximum possible bioavailability after oral administration (well-stirred) (rat hepatocytes) [%] |
| --- | --- | --- | --- |
| CC1=C(C(=O)OCCO)[C@@H](c2ccc(C#N)cc2S(C)(=O)=O)N(S(C)(=O)=O)C(=O)N1c1cccc(C(F)(F)F)c1 [Example 144, 2-Hydroxyethyl (4S)-4-[4-cyano-2-(methylsulfonyl)phenyl]-6-methyl-3-(methylsulfonyl)-2-oxo-1-[3-(trifluoromethyl)phenyl]-1,2,3,4-tetrahydropyrimidine-5-carboxylate] | < 0.3 | 20 | 72 |
| CC1=C(C#N)[C@@H](c2ccc(C#N)cc2S(C)(=O)=O)N(S(=O)(=O)c2ccc(F)cc2)C(=O)N1c1cccc(C(F)(F)F)c1 [Example 91] | < 0.3 | 12 | 83 |
| CC1=C(C#N)[C@@H](c2ccc(C#N)cc2S(C)(=O)=O)N(CC(N)=O)C(=O)N1c1cccc(C(F)(F)F)c1 [Example 22, 2-[(6S)-5-Cyano-6-[4-cyano-2-(methylsulfonyl)phenyl]-4-methyl-2-oxo-3-[3-(trifluoromethyl)phenyl]-3,6-dihydropyrimidin-1(2H)-yl]acetamide] | 0.45 | 3.3 | 95 |

The remaining lines, values ahead:

| IC50 [1] [nM] | CLblood, calculated blood clearance (well stirred model) (rat hepatocytes) [mL/min/kg] | Fmax, maximum possible bioavailability after oral administration (well-stirred) (rat hepatocytes) [%] | SMILES |
| --- | --- | --- | --- |
| < 0.3 | 6.7 | 91 | CC1=C(C#N)[C@@H](c2ccc(C#N)cc2S(C)(=O)=O)N(S(C)(=O)=O)C(=O)N1c1cccc(C(F)(F)F)c1 [Example 27, (4S)-4-[4-Cyano-2-(methylsulfonyl)phenyl]-6-methyl-3-(methylsulfonyl)-2-oxo-1-[3-(trifluoromethyl)phenyl]-1,2,3,4-tetrahydropyrimidine-5-carbonitrile] |
| < 0.3 | 1.7 | 97 | CC1=C(C#N)[C@@H](c2ccc(C#N)cc2S(C)(=O)=O)N(S(=O)(=O)C2CC2)C(=O)N1c1cccc(C(F)(F)F)c1 [Example 32, (4S)-4-[4-Cyano-2-(methylsulfonyl)phenyl]-6-methyl-3-(cyclopropylsulfonyl)-2-oxo-1-[3-(trifluoromethyl)phenyl]-1,2,3,4-tetrahydropyrimidine-5-carbonitrile] |
| < 0.3 | 25 | 65 | CC1=C(C#N)[C@@H](c2ccc(C#N)cc2S(C)(=O)=O)N(C(=O)NCCO)C(=O)N1c1cccc(C(F)(F)F)c1 [Example 10, (6S)-5-Cyano-6-[4-cyano-2-(methylsulfonyl)phenyl]-N-(2-hydroxyethyl)-4-methyl-2-oxo-3-[3-(trifluoromethyl)phenyl]-3,6-dihydropyrimidine-1(2H)-carboxamide] |
| < 0.3 | 6.7 | 89 | CN1CC2=C(C1=O)[C@@H](c1ccc(C#N)cc1S(C)(=O)=O)N(S(C)(=O)=O)C(=O)N2c1cccc(C(F)(F)F)c1 [Example 36, 4-{(4S)-6-Methyl-3-(methylsulfonyl)-2,5-dioxo-1-[3-(trifluoromethyl)phenyl]-2,3,4,5,6,7-hexahydro-1H-pyrrolo[3,4-d]pyrimidin-4-yl}-3-(methylsulfonyl)benzonitrile] |
